Data taken from patent publication US20220380331A1, “TREATMENT OF CONDITIONS OF THE NERVOUS SYSTEM” (priority 2019, published 2022).

Tests used:
sensorimotor cortex (M1) = assay: Intracortical microstimulation (ICMS) mapping of HL and FL cortical movement representations; assay type: in vivo, rat
Description: FIG. […]): Perineuronal net inhibitor (PNNi) induces reorganisation of the sensorimotor map (M1) in intact rats. Using intracortical microstimulation (ICMS), mapping of the HL and FL cortical movement representations were used to investigate the functional organisation of the M1 of intact/sham animals after long-term treatment with the prospective plasticity enhancer, […] was performed at stereotaxic coordinates within a right hemisphere craniotomy 5 mm rostral/caudal to bregma (B) (A) 11 weeks post mid-thoracic laminectomy (Sham) or for age-controlled intact rats. Individual ICMS maps were combined to give the representative heat map per group illustrating the percentage of animals for each stereotaxic coordinate where hindlimb (HL; B-D) or forelimb (FL; K-M) movements were able to be elicited. A baseline HL and FL cortical map was generated for Lister Hooded rats (B, K; dotted outlines in B-D, K-M) to compare the functional plasticity of groups with sham surgery (C, L) and with chronic PNNi administration (D, M). Measurements for HL analysis (F-G) are illustrated in E). H) Average area (mm^2) of the HL representation reduced with PNNi treatment. […] Measurements for FL analysis (P-S) are illustrated in O). After PNNi treatment, FL movements were elicited in areas that are not associated with FL or HL movements (see right of the baseline HL map; white dotted outline K-M). […]

[1] = test system: HL sensory function after spinal cord injury; assay: Von Frey assay (50% withdrawal threshold) in spinal cord injured rats; assay type: in vivo, rat
Description: Changes to HL sensory function was assessed using von Frey methodologies to look for hyperalgesia and neuropathic pain. Four animals at a time were acclimatised to Perspex cages with a wire mesh bottom (FIG. 3) for approximately fifteen to twenty minutes before the test began and until general movement and grooming activities stopped. Von Frey filaments (Touch Test™ Sensory Evaluator Kit of 20; #39337500; Leica Biosystems, Milton Keynes, England FIG. 3C) were depressed through the mesh-bottomed cage against the more sensitive plantar arch of the HL footpads where withdrawal of the limb was counted as a positive result. Flinching was also seen as a positive response whereas walking was an ambiguous response requiring retesting after an appropriate delay. The left hindpaw and right hindpaw of all animals were performed in series to provide a sufficient interval between stimuli.

Structure (SMILES): Cc1cc(=O)oc2cc(O)ccc12 [PNNi, 4-methylumbelliferone]
- percentage of FL movements associated with areas previously eliciting HL movements (sensorimotor cortex (M1); SCI plus long-term PNNi, sham control 4.27±1.56%): 23.9±8.01%
- total area able to elicit HL movements (sensorimotor cortex (M1); sham animals, long-term treatment): reduced the total area able to elicit HL movements
- L-R average 50% withdrawal threshold, plantar hindpaws ([1]; 8 week PNNi with or without training, 9 and 12 WPI): did not show hyperalgesia
- tactile sensitivity using von Frey hair test ([1]; treatment groups after T9 contusion injury, n=11): did not show any difference
